test: recombinant UMI read abundance after kanamycin selection (control-corrected) (log10(CPM+1)); higher = more efficient recombination; extreme values may be limits of the assay; sequences stand for … in AGTGCAGAGAAAATCGGCCAGTTTTCTCTGCCTGCAGTCCGCATGCCGTGGGACCCCTTGGGTTCTAACCTGTTGCCTAGATTTATGCAGCGGACTGCCTTTCTCCCAAAGTGATAAACCGG…AGGTTGGTTTCACT; site = the 11-nt donor
Method in brief: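 In a pooled Escherichia coli screen for the IS621 bridge recombinase, donor and donor-binding-loop pairs were each placed with a 12-nt UMI on a plasmid bearing a promoterless kanamycin gene. This library was co-electroporated with a target plasmid encoding a fixed target and T7-inducible recombinase, and cells were plated either on IPTG (0.07 mM) plus kanamycin or without selection, in two replicates each. Recombinant UMIs were PCR-amplified across the donor–target junction and sequenced, and counts were converted to CPM, averaged over replicates, scaled by control-derived factors and reported as log10(CPM+1).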
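Note: IS621 bridge recombinase in Escherichia coli cells against a fixed T5 target plasmid.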

| Sequence | recombinant UMI read abundance (log10) |
| --- | --- |
| ACTTATGCATGGACCGGTTTTCCCGGTAATCCGTATTTGGA (site AGTTATGCTTC) | 0.698 |
| ACTTATGCATGGACCGGTTTTCCCGGTAATCCGTATTTGGA (site ATTTATGCTTC) | 0.623 |
| ACTTCCGCATGGACCGGTTTTCCCGGTAATCCGTATTTGTT (site ACTTCCGCTAA) | 1.5 |
| ACTTCTCCATGGACCGGTTTTCCCGGTAATCCGTATTTGAT (site ACTTCTCCTAT) | 0.78 |
| ACTTGAACATGGACCGGTTTTCCCGGTAATCCGTATTTGAG (site ACTAGAACTCT) | 0.0666 |
| ACTTGAACATGGACCGGTTTTCCCGGTAATCCGTATTTGAG (site ACTCGAACTCT) | 0.999 |
| ACTTGAACATGGACCGGTTTTCCCGGTAATCCGTATTTGAG (site ACTGGAACTCT) | 1.23 |
| ACTTGAACATGGACCGGTTTTCCCGGTAATCCGTATTTGAG (site ACTTGAACTCT) | 0.998 |
| AGAAACACATGGACCGGTTTTCCCGGTAATCCGTATTTGGT (site AGAAACACTAC) | 2.3 |
| AGAAAGACATGGACCGGTTTTCCCGGTAATCCGTATTTGCA (site AGAAAGACTTG) | 2.6 |
| AGAAAGACATGGACCGGTTTTCCCGGTAATCCGTATTTGCA (site AGCAAGACTTG) | 1.59 |
| AGAAAGACATGGACCGGTTTTCCCGGTAATCCGTATTTGCA (site AGGAAGACTTG) | 0.932 |
| AGAAAGACATGGACCGGTTTTCCCGGTAATCCGTATTTGCA (site AGTAAGACTTG) | 1.15 |
| AGAAAGGCATGGACCGGTTTTCCCGGTAATCCGTATTTGAT (site AGAAAGGCTAA) | 0.418 |
| AGAAAGGCATGGACCGGTTTTCCCGGTAATCCGTATTTGAT (site AGAAAGGCTAC) | 0 |
| AGAAAGGCATGGACCGGTTTTCCCGGTAATCCGTATTTGAT (site AGAAAGGCTAG) | 0 |
| AGAAAGGCATGGACCGGTTTTCCCGGTAATCCGTATTTGAT (site AGAAAGGCTAT) | 2.28 |
| AGAACGCCATGGACCGGTTTTCCCGGTAATCCGTATTTGCC (site AGAACGCCTGG) | 0.968 |
| AGAATGACATGGACCGGTTTTCCCGGTAATCCGTATTTGCA (site AGAATGACTTG) | 2.63 |

| Sequence | recombinant UMI read abundance (log10) |
| --- | --- |
| AGAATGACATGGACCGGTTTTCCCGGTAATCCGTATTTGCA (site AGGAAGACTTG) | 1.53 |
| AGAATGTCATGGACCGGTTTTCCCGGTAATCCGTATTTGGG (site AGAATGTCTCC) | 2.01 |
| AGAATTTCATGGACCGGTTTTCCCGGTAATCCGTATTTGGG (site AGAATTTCTCC) | 0.964 |
| AGACAGCCATGGACCGGTTTTCCCGGTAATCCGTATTTGCA (site AGACAGCCTTG) | 1.21 |
| AGACGCACATGGACCGGTTTTCCCGGTAATCCGTATTTGTT (site AGACGCACTAA) | 1.79 |
| AGAGAAGCATGGACCGGTTTTCCCGGTAATCCGTATTTGCG (site AGAGAAGCTCG) | 3.09 |
| AGAGATCCATGGACCGGTTTTCCCGGTAATCCGTATTTGAA (site AGAGATCCTTT) | 2.01 |
| AGAGATTCATGGACCGGTTTTCCCGGTAATCCGTATTTGGC (site AGAGATTCTGC) | 2.95 |
| AGAGCTTCATGGACCGGTTTTCCCGGTAATCCGTATTTGGG (site AGAGCTTCTCC) | 1.06 |
| AGAGGAGCATGGACCGGTTTTCCCGGTAATCCGTATTTGGC (site AGAGGAGCTGC) | 1.01 |
| AGAGGATCATGGACCGGTTTTCCCGGTAATCCGTATTTGCA (site ACAGTATCTTG) | 1.59 |
| AGAGGATCATGGACCGGTTTTCCCGGTAATCCGTATTTGCA (site AGAGGATCTTG) | 2.04 |
| AGAGGCACATGGACCGGTTTTCCCGGTAATCCGTATTTGAC (site AGAGGCACTGT) | 2.32 |
| AGAGTGGCATGGACCGGTTTTCCCGGTAATCCGTATTTGCT (site AGAGTGGCTAG) | 2.62 |
| AGAGTGTCATGGACCGGTTTTCCCGGTAATCCGTATTTGCA (site ACAGTATCTTG) | 2.56 |
| AGAGTGTCATGGACCGGTTTTCCCGGTAATCCGTATTTGCA (site AGAGTGTCTTG) | 3.45 |
| AGATAATCATGGACCGGTTTTCCCGGTAATCCGTATTTGCT (site AGATAATCTAG) | 3.3 |
| AGATCATCATGGACCGGTTTTCCCGGTAATCCGTATTTGCT (site AGATCATCTAG) | 1.56 |
| AGATCATCATGGACCGGTTTTCCCGGTAATCCGTATTTGCT (site CGATCATCTAG) | 0.477 |

Reference: the supplement of paper PMC11208160
